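These data come from cells grown in 96-well plates and exposed to compound for 48 hours at five concentrations. Here, GI50 denotes the concentration required for 50% inhibition of growth. TGI marks complete inhibition of growth.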
Assays:
Test in all cases: inhibition of tumour cell growth, NCI panel, 48 h
[1] = system: UACC-62 melanoma
[2] = system: NCI-H460 lung
[3] = system: HCC-2998 colon
[4] = system: A549 NSCLC
[5] = system: SR leukemia
[6] = system: HOP-62 NSCLC
[7] = system: RPMI-8226 leukemia
[8] = system: SN12C renal
[9] = system: LOX IMVI melanoma
[10] = system: MOLT-4 leukemia
[11] = system: CAKI-1 renal
[12] = system: 786-0 renal
[13] = system: T-47D breast
[14] = system: ACHN renal
[15] = system: UACC-257 melanoma
[16] = system: SK-OV-3 ovarian
[17] = system: SNB-75 CNS
[18] = system: OVCAR-4 ovarian
[19] = system: HCT-15 colon
[20] = system: SNB-19 CNS
[21] = system: NCI/ADR-RES ovarian
[22] = system: SK-MEL-5 melanoma
[23] = system: SW-620 colon
[24] = system: U251 CNS
[25] = system: KM12 colon
[26] = system: HL-60(TB) leukemia
[27] = system: OVCAR-8 ovarian
[28] = system: EKVX NSCLC
[29] = system: HT29 colon
[30] = system: SK-MEL-2 melanoma
[31] = system: UO-31 renal
[32] = system: PC-3 prostate
[33] = system: MCF7 breast
[34] = system: MDA-MB-435
[35] = system: SF-295 CNS
[36] = system: M14 melanoma
[37] = system: OVCAR-5 ovarian
[38] = system: HOP-92 NSCLC
[39] = system: IGROV1 ovarian
[40] = system: SK-MEL-28 melanoma
[41] = system: A498 renal
[42] = system: HCT-116 colon
[43] = system: HS 578T breast
[44] = system: MDA-MB-231 breast
[45] = system: SF-539 CNS
[46] = system: OVCAR-3 ovarian
[47] = system: CCRF-CEM leukemia
[48] = system: NCI-H226 lung
[49] = system: NCI-H23 lung
[50] = system: RXF 393 renal
[51] = system: DU-145 prostate
[52] = system: BT-549 breast
[53] = system: SF-268 CNS
[54] = system: TK-10 renal
[55] = system: MALME-3M melanoma
[56] = system: K-562 leukemia
[57] = system: NCI-H522 lung

CCOC(=O)c1ccc2c(c1)c1c(C)c3cnccc3c(C)c1n2C
GI50 [1]: 98.4 nM | TGI [1]: 264 nM | GI50 [2]: 265 nM | TGI [2]: 1070 nM | GI50 [3]: 257 nM | TGI [3]: 1290 nM | GI50 [4]: 147 nM | TGI [4]: 1020 nM | GI50 [5]: 44.7 nM | GI50 [6]: 75.5 nM | TGI [6]: 1070 nM | GI50 [7]: 95.3 nM | TGI [7]: 1800 nM | GI50 [8]: 78.3 nM | TGI [8]: 865 nM | GI50 [9]: 55.8 nM | TGI [9]: 310 nM | GI50 [10]: 59.4 nM | TGI [10]: 1660 nM | GI50 [11]: 47.5 nM | TGI [11]: 859 nM | GI50 [12]: 141 nM | TGI [12]: 1110 nM | GI50 [13]: 382 nM | TGI [13]: 15800 nM | GI50 [14]: 38.5 nM | TGI [14]: 328 nM | GI50 [15]: 181 nM | TGI [15]: 651 nM | GI50 [16]: 216 nM | TGI [16]: 713 nM | GI50 [17]: 141 nM | TGI [17]: 703 nM | GI50 [18]: 217 nM | TGI [18]: 697 nM | GI50 [19]: 57.1 nM | TGI [19]: 921 nM | GI50 [20]: 107 nM | TGI [20]: 1330 nM | GI50 [21]: 68.2 nM | TGI [21]: 600 nM | GI50 [22]: 192 nM | TGI [22]: 651 nM | GI50 [23]: 48.2 nM | TGI [23]: 839 nM | GI50 [24]: 99.2 nM | TGI [24]: 830 nM | GI50 [25]: 128 nM | TGI [25]: 1030 nM | GI50 [26]: 324 nM | TGI [26]: 1490 nM | GI50 [27]: 116 nM | TGI [27]: 2990 nM | GI50 [28]: 193 nM | TGI [28]: 690 nM | GI50 [29]: 56.1 nM | TGI [29]: 1410 nM | GI50 [30]: 190 nM | TGI [30]: 677 nM | GI50 [31]: 53.6 nM | TGI [31]: 728 nM | GI50 [32]: 137 nM | TGI [32]: 821 nM | GI50 [33]: 205 nM | TGI [33]: 1030 nM | GI50 [34]: 142 nM | TGI [34]: 501 nM | GI50 [35]: 128 nM | TGI [35]: 765 nM | GI50 [36]: 151 nM | TGI [36]: 383 nM | GI50 [37]: 216 nM | TGI [37]: 912 nM | GI50 [38]: 143 nM | TGI [38]: 813 nM | GI50 [39]: 53.9 nM | TGI [39]: 357 nM | GI50 [40]: 183 nM | TGI [40]: 463 nM | GI50 [41]: 162 nM | TGI [41]: 376 nM | GI50 [42]: 37.8 nM | TGI [42]: 1030 nM | GI50 [43]: 204 nM | TGI [43]: 900 nM | GI50 [44]: 160 nM | TGI [44]: 892 nM | GI50 [45]: 173 nM | TGI [45]: 1070 nM | GI50 [46]: 119 nM | TGI [46]: 470 nM | GI50 [47]: 216 nM | TGI [47]: 2940 nM | GI50 [48]: 91.1 nM | TGI [48]: 382 nM | GI50 [49]: 100 nM | TGI [49]: 417 nM | GI50 [50]: 120 nM | TGI [50]: 390 nM | GI50 [51]: 108 nM | TGI [51]: 718 nM | GI50 [52]: 441 nM | TGI [52]: 1880 nM | GI50 [53]: 98.8 nM | TGI [53]: 823 nM | GI50 [54]: 334 nM | TGI [54]: 1310 nM | GI50 [55]: 131 nM | TGI [55]: 407 nM | GI50 [56]: 79.2 nM | TGI [56]: 1320 nM | GI50 [57]: 88.1 nM | TGI [57]: 318 nM

Reference: PubChem BioAssay (NCI)
